Experimental data as given in ChEMBL document CHEMBL1201862, “PubChem BioAssay data set” (2004).
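Each compound was tested at five concentrations against cells in 96-well plates for 48 hours. Here, GI50 denotes the concentration required for 50% inhibition of growth.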 The source made the active and inactive calls. No stated cut-off is given here; in the data, active = GI50 up to about 1.1 µM and inactive = higher.

What was measured:
Experiment in all cases: inhibition of tumour cell growth, NCI panel, 48 h
[1] = test system: SF-539
[2] = test system: A549
[3] = test system: UO-31
[4] = test system: UACC-62
[5] = test system: NCI-H226
[6] = test system: OVCAR-8
[7] = test system: NCI-H522
[8] = test system: KM12
[9] = test system: RXF 393
[10] = test system: ACHN
[11] = test system: A498
[12] = test system: NCI-H23
[13] = test system: 786-0
[14] = test system: MDA-N
[15] = test system: U-251
[16] = test system: IGROV-1
[17] = test system: T47D
[18] = test system: OVCAR-3
[19] = test system: SK-MEL-5

Measured: GI50

CCOC(=O)/C=C/c1cccc(F)c1
inactive: [1] > 100 µM | [2] > 100 µM | [3] > 100 µM | [4] > 100 µM | [5] > 100 µM | [6] > 100 µM | [7] > 100 µM | [8] > 100 µM | [9] > 100 µM | [10] > 100 µM | [11] > 100 µM | [12] > 100 µM | [13] > 100 µM | [14] > 100 µM | [15] > 100 µM | [16] > 100 µM | [17] > 100 µM

Cc1nn(-c2ccccc2)c(C)c1/C=N/N=C1\SCC(=O)N1c1ccccc1
inactive: [1] 22.9 µM | [2] 28.6 µM | [3] 21.5 µM | [4] 21.4 µM | [5] 23.6 µM | [6] 21.7 µM | [18] 24.9 µM | [8] 25 µM | [9] 16.5 µM | [10] 17.3 µM | [11] 23.6 µM | [12] 27.5 µM | [13] 15.8 µM | [14] 20.9 µM | [19] 15 µM | [15] 25.8 µM | [16] 32.3 µM | [17] 26.5 µM

Cc1cc(S(=O)(=O)n2ccnc2Oc2ccccc2)c(SSc2cc(Cl)c(C)cc2S(=O)(=O)n2ccnc2Oc2ccccc2)cc1Cl
inactive: [1] > 100 µM | [2] > 100 µM | [3] > 100 µM | [4] > 100 µM | [5] 15.9 µM | [6] > 100 µM | [18] > 100 µM | [7] 5.93 µM | [8] > 100 µM | [9] > 100 µM | [11] > 100 µM | [13] 93.3 µM | [14] > 100 µM | [19] 24.9 µM | [15] > 100 µM | [16] 42.6 µM | [17] > 100 µM

Cc1cc(C)nc(SCCc2cccc[n+]2C)n1
inactive: [2] 34.4 µM | [3] > 100 µM | [4] > 100 µM | [5] > 100 µM | [6] > 100 µM | [18] > 100 µM | [7] > 100 µM | [8] > 100 µM | [9] > 100 µM | [10] > 100 µM | [11] 60.7 µM | [12] > 100 µM | [13] > 100 µM | [14] > 100 µM | [19] > 100 µM | [15] > 100 µM | [16] > 100 µM | [17] > 100 µM

CCN(CC)c1ccc(/C=C/C=C2C(=O)NC(=S)NC2=O)cc1
inactive: [1] 13.9 µM | [2] > 100 µM | [3] > 71.8 µM | [4] 15.1 µM | [5] 28.6 µM | [6] 14.3 µM | [18] 16.6 µM | [8] 38 µM | [9] 8.07 µM | [10] > 100 µM | [11] > 100 µM | [12] > 67.5 µM | [13] 27.7 µM | [14] 12.4 µM | [19] 37.5 µM | [15] 21 µM | [16] > 100 µM | [17] > 100 µM

COc1ccc2c(c1)CCc1cc(OC)ccc1/[N+]([O-])=[N+]\2[O-]
inactive: [1] 21.2 µM | [2] 26.4 µM | [3] 9.08 µM | [4] 15.8 µM | [6] 10.4 µM | [18] 16.6 µM | [7] 5.93 µM | [8] 20.2 µM | [9] 2.86 µM | [10] 10.8 µM | [11] 16.2 µM | [12] 23.1 µM | [13] 6.27 µM | [14] 14.3 µM | [19] 16.3 µM | [15] 17.6 µM | [16] 12.1 µM | [17] 17 µM

NC(CCc1ccccc1)(C(=O)O)c1ccccc1 (stereo not drawn)
inactive: [2] > 100 µM | [3] > 100 µM | [4] > 100 µM | [5] > 100 µM | [6] > 100 µM | [18] > 100 µM | [7] > 100 µM | [8] > 100 µM | [9] > 100 µM | [10] > 100 µM | [11] > 100 µM | [12] > 100 µM | [13] > 100 µM | [14] > 100 µM | [19] > 100 µM | [15] > 100 µM | [16] > 100 µM | [17] > 100 µM

Cc1c(O)nc(-n2[nH]c3c(c2=O)CCCC3)[nH]c1=O
inactive: [3] > 100 µM | [4] > 100 µM | [5] > 100 µM | [6] > 100 µM | [7] > 100 µM | [8] > 100 µM | [9] > 100 µM | [10] > 100 µM | [11] > 100 µM | [12] > 100 µM | [13] > 100 µM | [14] > 100 µM | [19] > 100 µM | [15] > 100 µM | [16] > 100 µM | [17] > 100 µM

CC(=O)n1nc(-c2ccccc2)n(/N=C/c2ccc([N+](=O)[O-])o2)c1=O
inactive: [1] 8.79 µM | [2] 7.21 µM | [3] 1.77 µM | [4] 10.4 µM | [6] 9.93 µM | [18] 7.91 µM | [7] 3.7 µM | [8] 16.4 µM | [9] 5.93 µM | [10] 8.38 µM | [11] 2.47 µM | [12] 7.64 µM | [13] 2.21 µM | [14] 1.81 µM | [19] 7.13 µM | [15] 15.9 µM | [16] 15.9 µM | [17] 19.9 µM

O=C1/C(=C/c2ccccc2O)N=C(c2ccccc2)N1c1nc2ccccc2s1
inactive: [1] 20.7 µM | [3] 36.6 µM | [5] 22.7 µM | [6] 23.9 µM | [18] 7.43 µM | [7] 4.06 µM | [8] 7.73 µM | [9] 34.3 µM | [10] 23.7 µM | [11] 20.4 µM | [12] 11.1 µM | [13] 14.5 µM | [14] 2.51 µM | [19] 7.57 µM | [15] 10.1 µM | [16] 15.6 µM | [17] 21.1 µM

O=C(Nc1ccc2ccccc2c1)c1cc2cc(CCl)ccc2oc1=O
inactive: [2] > 100 µM | [3] > 100 µM | [4] > 100 µM | [5] 57.5 µM | [6] > 100 µM | [18] > 100 µM | [7] 74 µM | [8] > 100 µM | [9] 22 µM | [10] > 100 µM | [11] > 100 µM | [12] 19 µM | [13] 39.4 µM | [14] > 100 µM | [19] > 100 µM | [15] 30.8 µM | [16] > 100 µM | [17] > 100 µM
